The values that follow come from ChEMBL document CHEMBL5647685.

In test [1] the target is T1, Tyrosine-protein kinase JAK3 (Homo sapiens) (UniProt P52333).
T1 sequence (whole entry): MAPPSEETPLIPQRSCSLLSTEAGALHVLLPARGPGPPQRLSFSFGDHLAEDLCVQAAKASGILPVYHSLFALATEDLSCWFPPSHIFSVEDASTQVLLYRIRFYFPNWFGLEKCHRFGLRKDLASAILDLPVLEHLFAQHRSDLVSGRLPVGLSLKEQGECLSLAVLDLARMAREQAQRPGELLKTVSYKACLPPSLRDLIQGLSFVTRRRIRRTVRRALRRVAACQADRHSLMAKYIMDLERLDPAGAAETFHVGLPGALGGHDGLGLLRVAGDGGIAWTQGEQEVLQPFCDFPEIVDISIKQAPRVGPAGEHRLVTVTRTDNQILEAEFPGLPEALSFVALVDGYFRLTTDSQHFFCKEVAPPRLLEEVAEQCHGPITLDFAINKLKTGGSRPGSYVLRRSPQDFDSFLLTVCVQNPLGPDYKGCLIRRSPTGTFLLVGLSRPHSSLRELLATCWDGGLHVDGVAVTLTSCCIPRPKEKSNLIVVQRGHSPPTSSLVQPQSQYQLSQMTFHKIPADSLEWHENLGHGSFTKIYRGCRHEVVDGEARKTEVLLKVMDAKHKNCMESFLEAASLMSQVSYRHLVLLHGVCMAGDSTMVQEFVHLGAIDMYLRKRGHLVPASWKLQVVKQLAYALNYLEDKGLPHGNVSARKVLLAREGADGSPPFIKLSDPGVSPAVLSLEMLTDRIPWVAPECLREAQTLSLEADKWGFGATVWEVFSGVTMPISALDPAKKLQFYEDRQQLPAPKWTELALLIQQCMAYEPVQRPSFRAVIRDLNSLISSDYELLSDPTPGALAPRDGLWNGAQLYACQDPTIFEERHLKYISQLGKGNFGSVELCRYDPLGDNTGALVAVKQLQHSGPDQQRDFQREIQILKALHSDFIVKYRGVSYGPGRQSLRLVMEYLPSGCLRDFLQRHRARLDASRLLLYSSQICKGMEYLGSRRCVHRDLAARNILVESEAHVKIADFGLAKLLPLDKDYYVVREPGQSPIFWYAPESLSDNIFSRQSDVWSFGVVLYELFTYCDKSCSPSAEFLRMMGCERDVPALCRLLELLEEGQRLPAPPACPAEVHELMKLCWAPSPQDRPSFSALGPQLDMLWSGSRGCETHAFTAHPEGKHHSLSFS
As to the kind of experiment: Inhibition of full-length C-terminal his-tagged human JAK3 at 1 uM pre-incubated with enzyme for 1 h prior to the addition of 500 uM ATP relative to control.

Test [2] addresses High affinity nerve growth factor receptor (Homo sapiens) (UniProt P04629). As to the kind of experiment: Inhibition of full-length C-terminal his-tagged human TRKA at 1 uM pre-incubated with enzyme for 1 h prior to the addition of 500 uM ATP relative to control.
The target in test [3] is T2, Aurora kinase A (Homo sapiens) (UniProt O14965).
T2 sequence (whole entry): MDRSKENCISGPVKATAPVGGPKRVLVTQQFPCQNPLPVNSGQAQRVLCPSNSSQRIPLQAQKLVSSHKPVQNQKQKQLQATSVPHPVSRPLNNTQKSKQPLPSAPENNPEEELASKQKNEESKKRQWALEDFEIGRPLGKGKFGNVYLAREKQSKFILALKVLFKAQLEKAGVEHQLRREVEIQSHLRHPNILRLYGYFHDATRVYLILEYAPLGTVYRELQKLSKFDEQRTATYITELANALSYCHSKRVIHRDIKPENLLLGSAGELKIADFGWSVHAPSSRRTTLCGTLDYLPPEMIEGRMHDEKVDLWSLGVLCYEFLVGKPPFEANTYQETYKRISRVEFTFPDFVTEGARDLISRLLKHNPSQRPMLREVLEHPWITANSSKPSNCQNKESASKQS
Kind of test: Inhibition of full-length C-terminal his-tagged human AUR2 at 1 uM pre-incubated with enzyme for 1 h prior to the addition of 500 uM ATP relative to control.

For test [4], the system named is MSC. Kind of test: Bone activity in human MSC cultures assessed as promotion of osteogenesis at 0.1 to 1 uM dosed on days 4 to 7 and measured on day 7 by alkaline phosphatase activity detection detection assay. Particulars: dose 0.1-1 µM, time 4.0 day. The format is functional.
In test [5] the test system is MSC. As to the kind of experiment: Induction of osteoblast nodule formation in human MSC cultures assessed as mineral incorporation at 0.1 to 1 uM by blue incubated for 1 to 14 days calcein detection based fluorescent micrography. The format is functional, cell-based. The settings on record: dose 0.1-1 µM, time 1-14 day.
Test [6] relates to MSC. Kind of test: Bone activity in human MSC cultures assessed as promotion of osteogenesis at 0.1 to 1 uM dosed on days 1 to 7 and measured on day 7 by alkaline phosphatase activity detection detection assay. Particulars: dose 0.1-1 µM, time 7.0 day. Format: functional.

The source made the active and inactive calls. The calls are words filed in the database; no cut-off is given here.

Sequence of High affinity nerve growth factor receptor (Homo sapiens) (P04629 33-796 limits assumed): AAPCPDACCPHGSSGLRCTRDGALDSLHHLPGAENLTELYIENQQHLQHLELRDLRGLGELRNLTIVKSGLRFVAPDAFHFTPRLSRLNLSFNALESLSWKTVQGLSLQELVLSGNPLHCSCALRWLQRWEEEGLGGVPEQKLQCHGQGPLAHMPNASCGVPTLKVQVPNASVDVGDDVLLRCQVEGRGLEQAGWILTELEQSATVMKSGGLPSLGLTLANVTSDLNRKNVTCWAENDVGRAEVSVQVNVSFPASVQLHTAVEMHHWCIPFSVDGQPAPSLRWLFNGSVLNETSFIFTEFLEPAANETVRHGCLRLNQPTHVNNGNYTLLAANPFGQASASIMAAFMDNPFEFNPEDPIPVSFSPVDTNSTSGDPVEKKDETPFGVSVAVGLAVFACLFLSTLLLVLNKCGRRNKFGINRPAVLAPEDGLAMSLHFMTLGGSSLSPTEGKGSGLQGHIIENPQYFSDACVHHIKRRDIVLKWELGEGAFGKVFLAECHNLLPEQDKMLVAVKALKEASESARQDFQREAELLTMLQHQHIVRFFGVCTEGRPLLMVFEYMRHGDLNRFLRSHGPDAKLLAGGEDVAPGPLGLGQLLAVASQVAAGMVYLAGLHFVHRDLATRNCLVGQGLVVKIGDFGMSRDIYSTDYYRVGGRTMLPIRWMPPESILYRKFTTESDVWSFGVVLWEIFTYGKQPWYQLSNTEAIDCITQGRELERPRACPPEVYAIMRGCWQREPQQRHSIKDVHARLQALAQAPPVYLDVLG

With `CN(c1ccccc1CNc1nc(Nc2ccc3c(c2)CC(=O)N3)ncc1C(F)(F)F)S(C)(=O)=O`, the inhibition in test [1], in test [2] and in test [3] was more than 90% in each case. For the same molecule, the result in the test with MSC [4] was Active. For the same molecule, the outcome in the test on MSC [5] was inactive.

For `Cc1ccc(-n2nc(C(C)(C)C)cc2NC(=O)Nc2cc(COc3cccnc3)n[nH]2)cc1`, the Activity entry in the test on MSC [6] was “Dose-Dependent Effect”. For the same molecule, in the test with MSC [5], the result was Active.
